Holding throughout (conditions): average where tested multiple times
Experiment [1] addresses T1, BCAT2 (Homo sapiens, UniProt O15382).
T1 sequence (O15382 28-392): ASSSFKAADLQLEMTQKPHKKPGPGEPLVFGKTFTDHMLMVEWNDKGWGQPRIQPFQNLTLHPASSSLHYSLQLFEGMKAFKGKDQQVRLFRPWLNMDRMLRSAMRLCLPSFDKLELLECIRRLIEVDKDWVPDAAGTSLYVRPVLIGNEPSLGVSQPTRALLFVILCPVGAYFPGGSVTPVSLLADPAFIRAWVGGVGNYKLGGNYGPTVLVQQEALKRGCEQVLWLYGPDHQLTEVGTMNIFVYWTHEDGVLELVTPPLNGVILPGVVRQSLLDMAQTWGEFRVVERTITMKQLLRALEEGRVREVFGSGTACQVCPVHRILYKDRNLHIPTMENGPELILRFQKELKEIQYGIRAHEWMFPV
The experiment can be described thus: BCAT2 in vitro enzyme inhibition assay (resazurin/diaphorase-coupled fluorescence). The experiment is classed as biochemical. In outline: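 Coupled fluorescence readout: glutamate formed from L-leucine/α-ketoglutarate transamination drives GDH/NAD/diaphorase reduction of resazurin (Ex 540/Em 590). Human BCAT2 was first exposed 1 h at room temperature to compound, top final 100 μM in 3-fold, 10-point series; substrate reaction ran 1 h before SDS quench, in technical duplicate with DMSO max and enzyme-free min controls.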

In experiment [2] the target is T1, BCAT2. The experiment can be described thus: BCAT2 in vitro cell inhibition using engineered A549 cells (KMV cell assay, 13C6-KMV by LC-MS/MS). Format: cell-based. Details: The result was an engineered A549 cell line that expressed endogenous BCAT2; endogenous in cells; host or cells: A549 cells with MUT and BCAT1 knocked out by CRISPR/CAS9; key to BCAT2 Cell Inhibition: A: less than or equal to 0.100 μM; B: greater than 0.100 and less than or equal to 0.500 μM; C: greater than 0.500 and less than or equal to 1.000 μM; d: greater than 1.000 μM; E: no fit.

The target in experiment [3] is T2, hBCAT1 (Homo sapiens, UniProt P54687).
T2 sequence (P54687 1-386): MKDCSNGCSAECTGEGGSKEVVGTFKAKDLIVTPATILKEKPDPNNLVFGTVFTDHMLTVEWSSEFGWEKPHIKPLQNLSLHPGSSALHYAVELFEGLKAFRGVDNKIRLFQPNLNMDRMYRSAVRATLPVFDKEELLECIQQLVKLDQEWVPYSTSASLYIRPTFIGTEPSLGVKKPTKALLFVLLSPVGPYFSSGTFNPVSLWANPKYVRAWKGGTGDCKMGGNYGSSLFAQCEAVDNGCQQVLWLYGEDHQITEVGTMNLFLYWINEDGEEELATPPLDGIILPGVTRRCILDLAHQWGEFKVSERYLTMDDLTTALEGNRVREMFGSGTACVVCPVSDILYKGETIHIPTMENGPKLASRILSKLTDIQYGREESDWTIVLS
The experiment can be described thus: BCAT1 in vitro enzyme inhibition assay (resazurin/diaphorase-coupled fluorescence). Format: biochemical. In outline:
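Ten-point, 3-fold compound series (top final 100 μM, delivered 1:50 from 50× DMSO stocks) tested against hBCAT1. Inhibition detected via diaphorase-coupled resazurin fluorescence, duplicate wells, with values from repeated runs averaged.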

Some results are limits rather than exact numbers.

Broadly, the IC50 is the midpoint of a concentration-inhibition curve. For `O=C(N[C@H]1CCC[C@@H](n2c(-c3ccccc3F)nc3cnc(-c4ccncc4)cc32)C1)c1ncc(Cl)s1` [Example 178, 5-chloro-N-((1S,3R)-3-(2-(2-fluorophenyl)-6-(pyridin-4-yl)-1H-imidazo[4,5-c]pyridin-1-yl)cyclohexyl)thiazole-2-carboxamide], the values for the IC50 in experiment [1], in experiment [2] and in experiment [3] were not above 100 nM, 100 to 500 nM and 500 to 1000 nM, respectively.

Turning to `O=C(N[C@H]1CCC[C@@H](n2c(OCC(F)(F)F)nc3cnc(-n4nccn4)cc32)C1)c1ncc(Cl)s1` [Example 101, N-((1S,3R)-3-(6-(2H-1,2,3-triazol-2-yl)-2-(2,2,2-trifluoroethoxy)-1H-imidazo[4,5-c]pyridin-1-yl)cyclohexyl)-5-chlorothiazole-2-carboxamide], the results for the concentration for half-maximal inhibition (IC50) in experiment [1], in experiment [2] and in experiment [3] were 100 to 500 nM, more than 1000 nM and more than 5000 nM, respectively.

With `CC(C)Cc1nc2cnc(-c3ccn(C(F)F)n3)cc2n1[C@@H]1CC(O)C[C@H](NC(=O)c2ncc(Cl)s2)C1` (stereo in doubt) [Example 213, 5-chloro-N-((1R,3S,5R)-3-(6-(1-(difluoromethyl)-1H-pyrazol-3-yl)-2-isobutyl-1H-imidazo[4,5-c]pyridin-1-yl)-5-hydroxycyclohexyl)thiazole-2-carboxamide], the figures for the IC50 in experiment [1], in experiment [2] and in experiment [3] were not above 100 nM, 500 to 1000 nM and 500 to 1000 nM, respectively.

As to `O=C(NC1CCCCC(n2c(-c3ccccn3)nc3cnc(-n4nccn4)cc32)C1)c1ncc(C(F)F)s1` (stereo not drawn) [Example 4, 5-(difluoromethyl)-N-(3-(2-(pyridin-2-yl)-6-(2H-1,2,3-triazol-2-yl)-1H-imidazo[4,5-c]pyridin-1-yl)cycloheptyl)thiazole-2-carboxamide], the 50% inhibitory concentration (IC50) in experiment [1] was not above 100 nM; in experiment [2] it was 500 to 1000 nM; in experiment [3] it was more than 5000 nM.

`O=C(N[C@H]1CCC[C@@H](n2c(-c3ccccc3F)nc3cnc(-c4cn[nH]c4)cc32)C1)c1ncc(Cl)s1` [Example 81, 5-chloro-N-((1S,3R)-3-(2-(2-fluorophenyl)-6-(1H-pyrazol-4-yl)-1H-imidazo[4,5-c]pyridin-1-yl)cyclohexyl)thiazole-2-carboxamide]: the figures for the IC50 in experiment [1], in experiment [2] and in experiment [3] were not above 100 nM, 100 to 500 nM and less than 500 nM, respectively.

Regarding `O=C(N[C@H]1CCC[C@@H](n2c(-c3ncccc3F)nc3cnc(-n4cncn4)cc32)C1)c1ncc(C(F)F)s1` [Example 28, 5-(difluoromethyl)-N-((1S,3R)-3-(2-(3-fluoropyridin-2-yl)-6-(1H-1,2,4-triazol-1-yl)-1H-imidazo[4,5-c]pyridin-1-yl)cyclohexyl)thiazole-2-carboxamide], the IC50 in experiment [1] is not above 100 nM; in experiment [2], 500 to 1000 nM; in experiment [3], 1000 to 5000 nM.

For `CC(C)Cc1nc2cnc(-c3nc[nH]n3)cc2n1[C@@H]1C[C@H](NC(=O)c2ncc(Cl)s2)CN(C)C1` (single isomer, unassigned) [Example 135], the IC50 is more than 1000 nM in experiment [1] and more than 5000 nM in experiment [3]. The “BCAT2 Cell Inhibition” value in experiment [2] is on record as “E”.

For `O=C(N[C@H]1CCC[C@@H](n2c(-c3ccccc3F)nc3cnc(-c4ncccc4F)cc32)C1)c1ncc(Cl)s1` [Example 169, 5-chloro-N-((1S,3R)-3-(2-(2-fluorophenyl)-6-(3-fluoropyridin-2-yl)-1H-imidazo[4,5-c]pyridin-1-yl)cyclohexyl)thiazole-2-carboxamide], the IC50 in experiment [1] was not above 100 nM; in experiment [2], not above 100 nM; in experiment [3], less than 500 nM.

Consider `O=C(N[C@H]1CCC[C@@H](n2c(-c3ncccc3F)nc3cnc(-n4cncn4)cc32)C1)c1ccc(Br)s1` [Example 16, 5-bromo-N-((1S,3R)-3-(2-(3-fluoropyridin-2-yl)-6-(1H-1,2,4-triazol-1-yl)-1H-imidazo[4,5-c]pyridin-1-yl)cyclohexyl)thiophene-2-carboxamide], for which the 50% inhibitory concentration (IC50) in experiment [1] was not above 100 nM; in experiment [2], not above 100 nM; in experiment [3], less than 500 nM.

`CN1C[C@H](NC(=O)c2ccc(Cl)s2)C[C@H](n2c(-c3ccccc3F)nc3cnc(-c4nc[nH]n4)cc32)C1` [Example 264, 5-chloro-N-((3R,5S)-5-(2-(2-fluorophenyl)-6-(1H-1,2,4-triazol-3-yl)-1H-imidazo[4,5-c]pyridin-1-yl)-1-methylpiperidin-3-yl)thiophene-2-carboxamide]: the values for the IC50 in experiment [1], in experiment [2] and in experiment [3] were not above 100 nM, not above 100 nM and less than 500 nM, respectively.

With `O=C(N[C@H]1CCC[C@@H](n2c(-c3c(O)cccc3F)nc3cnc(-n4nccn4)cc32)C1)c1ncc(Cl)s1` [Example 354, 5-chloro-N-((1S,3R)-3-(2-(2-fluoro-6-hydroxyphenyl)-6-(2H-1,2,3-triazol-2-yl)-1H-imidazo[4,5-c]pyridin-1-yl)cyclohexyl)thiazole-2-carboxamide], the figures for the IC50 in experiment [1], in experiment [2] and in experiment [3] were not above 100 nM, not above 100 nM and less than 500 nM, respectively.

As to `CC(C)Cc1nc2cnc(-n3ncc(CO)n3)cc2n1[C@@H]1CCC[C@H](NC(=O)c2ncc(Cl)s2)C1` [Example 337, 5-chloro-N-((1S,3R)-3-(6-(4-(hydroxymethyl)-2H-1,2,3-triazol-2-yl)-2-isobutyl-1H-imidazo[4,5-c]pyridin-1-yl)cyclohexyl)thiazole-2-carboxamide], the 50% inhibitory concentration (IC50) was not above 100 nM in experiment [1], 500 to 1000 nM in experiment [2] and less than 500 nM in experiment [3].

As for `CC(C)[C@@H](O)c1nc2cnc(-c3ccccn3)cc2n1[C@@H]1CCC[C@H](NC(=O)c2ncc(Cl)s2)C1` [Example 305, 5-chloro-N-((1S,3R)-3-(2-((R)-1-hydroxy-2-methylpropyl)-6-(pyridin-2-yl)-1H-imidazo[4,5-c]pyridin-1-yl)cyclohexyl)thiazole-2-carboxamide], the results for the IC50 in experiment [1], in experiment [2] and in experiment [3] were not above 100 nM, 100 to 500 nM and less than 500 nM, respectively.

Take `CC(=O)N1CC(NC(=O)c2ccc(Cl)s2)CC(n2c(CC(C)C)nc3cnc(-n4nccn4)cc32)C1` (stereo not drawn) [Example 131, N-(1-acetyl-5-(2-isobutyl-6-(2H-1,2,3-triazol-2-yl)-1H-imidazo[4,5-c]pyridin-1-yl)piperidin-3-yl)-5-chlorothiophene-2-carboxamide]: the values for the IC50 in experiment [1], in experiment [2] and in experiment [3] were not above 100 nM, 100 to 500 nM and less than 500 nM, respectively.

As for `O=C(N[C@H]1CCC[C@@H](n2c(-c3ncccc3F)nc3cnc(-n4nccn4)cc32)C1)c1ncc(C(F)F)s1` [Example 24, 5-(difluoromethyl)-N-((1S,3R)-3-(2-(3-fluoropyridin-2-yl)-6-(2H-1,2,3-triazol-2-yl)-1H-imidazo[4,5-c]pyridin-1-yl)cyclohexyl)thiazole-2-carboxamide], the values for the half-maximal inhibitory concentration (IC50) in experiment [1], in experiment [2] and in experiment [3] were not above 100 nM, not above 100 nM and less than 500 nM, respectively.

As to `O=C(NC1CC(O)CC(n2c(-c3ccccc3F)nc3cnc(-n4nccn4)cc32)C1)c1ncc(C(F)F)s1` (stereo not drawn) [Example 106, 5-(difluoromethyl)-N-(3-(2-(2-fluorophenyl)-6-(2H-1,2,3-triazol-2-yl)-1H-imidazo[4,5-c]pyridin-1-yl)-5-hydroxycyclohexyl)thiazole-2-carboxamide], the IC50 in experiment [1] was not above 100 nM; in experiment [2] it was not above 100 nM; in experiment [3] it was less than 500 nM.

As for `O=C(N[C@H]1CCC[C@@H](n2c(-c3ccccc3F)nc3cnc(-n4ccnn4)cc32)C1)c1ncc(C(F)F)s1` [Example 38, 5-(difluoromethyl)-N-((1S,3R)-3-(2-(2-fluorophenyl)-6-(1H-1,2,3-triazol-1-yl)-1H-imidazo[4,5-c]pyridin-1-yl)cyclohexyl)thiazole-2-carboxamide], the IC50 in experiment [1] is not above 100 nM; in experiment [2], 100 to 500 nM; in experiment [3], 1000 to 5000 nM.

Source of the values: patent US20260159512A1, “BCAT2 INHIBITORS” (AGIOS PHARMACEUTICALS, INC., priority 2021, published 2026).
